{"source": "patent US20190274303A1", "about": "“USE OF A DIFLUORO-(2-HYDROXYPROPYL)PYRIDINE COMPOUND AS A FUNGICIDE FOR CONTROL OF PHYTOPATHOGENIC FUNGI OF BARLEY” (Dow AgroSciences LLC, priority 2016, published 2019)", "tested_on": "Pyrenophora teres (PYRNTE)", "test": "Field assessment of net blotch of barley", "assay_type": "in vivo", "conditions": "for Percent Control PYRNTE: based on AUDPC, barley, field", "method": "Field Assessment of Pyrenophora teres (PYRNTE) in Barley:\nA fungicidal treatment containing Compound I was assessed against net blotch of barley (PYRNTE) in two separate field trials. In each trial, fungicidal treatments of Compound I were applied using two separate adjuvant systems. In the first system, an EC formulation of compound I was tank mixed with Agnique BP-420 (50%) at an active:adjuvant ratio of 1:2. The second adjuvant system was an SC formulation of Compound I tank mixed with Agnique BP-420 EW (38.5%) at an active:adjuvant ratio of 1:2 and Agnique FOH TDA-9 (30% w/w) applied at 0.33% V/V. Both the EC and SC formulation was sprayed on barley plants at rates of 25, 50, 75, 100, 150, 200 and 250 grams active ingredient per hectare (g ai/ha). In the first trial, fungicidal treatments of Compound I were applied at B39 (early curative, 1% infection on leaf 1) growth stage of winter barley (HORVW, Lomerit variety) under natural infection of PYRNTE. The treatment was part of an experimental trial designed as a randomized complete block with four replications. In the second trial, fungicidal treatments of Compound I were applied at B37 (protectant, 1% infection on leaf 4) growth stage of spring barley (HORVS, Scarlett variety) under natural infection of PYRNTE. The treatment was part of an experimental trial designed as a randomized complete block with four replications.\nDisease severity was recorded as a percentage of visual diseased foliage on whole plot. Net blotch of barley infection was recorded following EPPO PP1/26 guideline prescriptions. Area under the disease progress curve (AUDPC) was calculated for each plot using the sets of recorded severity data. Relative AUDPC (% control based on AUDPC) was calculated as percent of the nontreated control.\nIn each case of the following Tables, the rating scale of percent control based on AUDPC is as follows: […]", "data": [{"smiles": "N#Cc1ccc(Oc2ccc(C(F)(F)C(O)(Cn3ncnc3S)c3ccc(F)cc3F)nc2)cc1", "note": "(stereo not drawn) [Compound I, 4-((6-(2-(2,4-difluorophenyl)-1,1-difluoro-2-hydroxy-3-(5-mercapto-1H-1,2,4-triazol-1-yl)propyl)pyridin-3-yl)oxy)benzonitrile]", "values": [{"measurement": "Percent Control PYRNTE", "setting": "25 g ai/ha, EC + Agnique BP-420", "result": "D (1-25)"}, {"measurement": "Percent Control PYRNTE", "setting": "25 g ai/ha, SC + Agnique BP-420 EW and Agnique FOH TDA-9", "result": "D (1-25)"}, {"measurement": "Percent Control PYRNTE", "setting": "50 g ai/ha, EC + Agnique BP-420", "result": "D (1-25)"}, {"measurement": "Percent Control PYRNTE", "setting": "50 g ai/ha, SC + Agnique BP-420 EW and Agnique FOH TDA-9", "result": "D (1-25)"}, {"measurement": "Percent Control PYRNTE", "setting": "75 g ai/ha, EC + Agnique BP-420", "result": "D (1-25)"}, {"measurement": "Percent Control PYRNTE", "setting": "75 g ai/ha, SC + Agnique BP-420 EW and Agnique FOH TDA-9", "result": "D (1-25)"}, {"measurement": "Percent Control PYRNTE", "setting": "100 g ai/ha, EC + Agnique BP-420", "result": "D (1-25)"}, {"measurement": "Percent Control PYRNTE", "setting": "100 g ai/ha, SC + Agnique BP-420 EW and Agnique FOH TDA-9", "result": "C (26-50)"}, {"measurement": "Percent Control PYRNTE", "setting": "150 g ai/ha, EC + Agnique BP-420", "result": "C (26-50)"}, {"measurement": "Percent Control PYRNTE", "setting": "150 g ai/ha, SC + Agnique BP-420 EW and Agnique FOH TDA-9", "result": "C (26-50)"}, {"measurement": "Percent Control PYRNTE", "setting": "200 g ai/ha, EC + Agnique BP-420", "result": "C (26-50)"}, {"measurement": "Percent Control PYRNTE", "setting": "200 g ai/ha, SC + Agnique BP-420 EW and Agnique FOH TDA-9", "result": "B (51-74)"}, {"measurement": "Percent Control PYRNTE", "setting": "250 g ai/ha, EC + Agnique BP-420", "result": "B (51-74)"}, {"measurement": "Percent Control PYRNTE", "setting": "250 g ai/ha, SC + Agnique BP-420 EW and Agnique FOH TDA-9", "result": "B (51-74)"}, {"measurement": "fungicidal effect on Pyrenophora teres", "setting": "net blotch of barley, general statement", "result": "significant fungicidal effect"}]}]}
